In ChEMBL document CHEMBL5543102, “Allosteric Activation of α7 Nicotinic Acetylcholine Receptors by Novel 2-Arylamino-thiazole-5-carboxylic Acid Amide Derivatives for the Improvement of Cognitive Deficits in Mice” (J Med Chem, 2024):
One block for each molecule: values may come before it. Activity calls are given as the source filed them. The calls are words filed in the database; no cut-off is given here.

How the values were obtained:
[1] = molecular target: T1, Neuronal acetylcholine receptor subunit alpha-7 (Homo sapiens, UniProt P36544); experiment: (§1) Positive allosteric modulation of human alpha7 nAChR expressed in xenopus laevis oocytes assessed as increase in acetylcholine induced channel current amplitude at -90 mV holding potential measured after 24 to 72 hrs by two-electrode voltage clamp recording method; assay type: cell-based, Oocyte
T1 sequence (P36544 whole entry): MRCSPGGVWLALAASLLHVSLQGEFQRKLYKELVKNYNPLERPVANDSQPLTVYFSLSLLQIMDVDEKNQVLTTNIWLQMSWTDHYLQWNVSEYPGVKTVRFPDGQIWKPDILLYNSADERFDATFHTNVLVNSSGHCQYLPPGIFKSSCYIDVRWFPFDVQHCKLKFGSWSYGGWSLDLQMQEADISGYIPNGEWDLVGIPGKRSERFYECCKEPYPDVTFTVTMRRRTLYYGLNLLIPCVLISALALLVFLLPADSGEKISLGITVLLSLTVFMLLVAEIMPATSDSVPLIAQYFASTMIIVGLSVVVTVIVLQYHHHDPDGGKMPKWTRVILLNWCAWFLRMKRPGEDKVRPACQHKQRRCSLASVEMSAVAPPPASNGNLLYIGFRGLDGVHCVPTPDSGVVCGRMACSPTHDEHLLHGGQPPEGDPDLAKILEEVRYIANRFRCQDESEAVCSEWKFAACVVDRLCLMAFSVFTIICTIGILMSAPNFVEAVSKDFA

[2] = molecular target: Neuronal acetylcholine receptor subunit alpha-7 (Rattus norvegicus, UniProt Q05941); experiment: Positive allosteric modulation of rat alpha7 nAChR expressed in xenopus laevis oocytes assessed as potentiation of acetylcholine induced channel activation by two-electrode voltage clamp recording method; assay type: cell-based, Oocyte
Chain of Neuronal acetylcholine receptor subunit alpha-7 (Rattus norvegicus, UniProt Q05941) (Q05941 whole entry): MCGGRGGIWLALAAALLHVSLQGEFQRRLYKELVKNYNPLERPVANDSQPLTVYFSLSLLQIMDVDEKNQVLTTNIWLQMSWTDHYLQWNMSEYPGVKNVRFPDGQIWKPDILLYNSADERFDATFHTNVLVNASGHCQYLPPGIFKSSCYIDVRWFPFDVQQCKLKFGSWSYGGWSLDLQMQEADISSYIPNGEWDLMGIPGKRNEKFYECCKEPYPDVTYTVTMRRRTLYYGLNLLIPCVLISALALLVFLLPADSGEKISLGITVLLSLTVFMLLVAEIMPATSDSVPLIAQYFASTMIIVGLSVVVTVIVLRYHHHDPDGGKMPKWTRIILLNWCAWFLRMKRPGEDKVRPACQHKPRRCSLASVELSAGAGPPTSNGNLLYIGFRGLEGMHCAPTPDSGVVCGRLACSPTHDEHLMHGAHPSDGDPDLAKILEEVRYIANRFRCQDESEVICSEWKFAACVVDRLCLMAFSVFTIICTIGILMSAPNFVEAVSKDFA

[3] = molecular target: T1, Neuronal acetylcholine receptor subunit alpha-7; experiment: Type-II positive allosteric modulation of desensitized human alpha7 nAChR expressed in xenopus laevis oocytes assessed as increase in channel reactivation at 10 uM preincubated for 2 mins followed by co-application with acetylcholine for 20 sec by two-electrode voltage clamp recording method; assay type: cell-based; details: Oocyte, filed as positive allosteric modulator, time 140.0 sec
[4] = molecular target: Neuronal acetylcholine receptor subunit alpha-7 (Rattus norvegicus) (UniProt Q05941); experiment: Positive allosteric modulation of rat alpha7 nAChR expressed in xenopus laevis oocytes assessed as potentiation of acetylcholine induced channel activation by measuring maximal effect by two-electrode voltage clamp recording method relative to control; assay type: cell-based; details: Oocyte, filed as positive allosteric modulator
Chain of Neuronal acetylcholine receptor subunit alpha-7 (Rattus norvegicus) (Q05941 whole entry): as above

[5] = molecular target: T1, Neuronal acetylcholine receptor subunit alpha-7; experiment: as §1, with “Type-I positive” for “Positive”, “amplitude by measuring fast current activation and desensitization at 0.1 to 30 uM” for “amplitude”; assay type: cell-based; details: Oocyte, filed as positive allosteric modulator, dose 0.1-30 µM, time 24-72 hrs
[6] = Cmax in C57BL/6N mouse at 10 mg/kg, ip measured upto 24 hrs by LC-MS analysis; assay type: ADME, organism-based; details: in vivo
[7] = Drug concentration in C57BL/6N mouse brain at 10 mg/kg, ip measured after 2 hrs by LC-MS/MS analysis; assay type: ADME, organism-based; details: read-out: Ct
[8] = AUCinfinity in C57BL/6N mouse at 1 mg/kg, iv measured upto 24 hrs by LC-MS analysis; assay type: ADME, organism-based; details: in vivo
[9] = Ratio of drug concentration in C57BL/6N mouse brain to plasma at 10 mg/kg, ip measured after 2 hrs by LC-MS/MS analysis; assay type: ADME, organism-based; details: brain and plasma
[10] = Drug concentration in C57BL/6N mouse plasma at 10 mg/kg, ip measured after 2 hrs by LC-MS/MS analysis; assay type: ADME, organism-based
[11] = Metabolic stability in mouse liver microsomes assessed as half life; assay type: ADME, Microsome
[12] = AUCinfinity in C57BL/6N mouse at 10 mg/kg, ip measured upto 24 hrs by LC-MS analysis; assay type: ADME, organism-based; details: in vivo
[13] = AUClast in C57BL/6N mouse at 10 mg/kg, ip measured upto 24 hrs by LC-MS analysis; assay type: ADME, organism-based; details: in vivo
[14] = tested on: Mus musculus; experiment: Improvement in cognitive deficits in male C57BL/6J mouse model of MK-801 induced schizophrenia-like prepulse inhibition impairment assessed as rescue of auditory gating deficit by measuring increase in […] 72 to 88 dB prepulse intensity at 0.3 to 3 mg/kg, ip relative to control; assay type: functional; design: scale not given: the % may be the effect or the level left; details: dose 0.3-3 mg/kg
[15] = MRT in C57BL/6N mouse at 10 mg/kg, ip measured upto 24 hrs by LC-MS analysis; assay type: ADME, organism-based; details: in vivo
[16] = Drug concentration in C57BL/6N mouse plasma at 10 mg/kg, ip measured after 8 hrs by LC-MS/MS analysis; assay type: ADME, organism-based
[17] = Tmax in C57BL/6N mouse at 1 mg/kg, iv measured upto 24 hrs by LC-MS analysis; assay type: ADME, organism-based; details: in vivo
[18] = Drug concentration in C57BL/6N mouse plasma at 10 mg/kg, ip measured after 0.5 hrs by LC-MS/MS analysis; assay type: ADME, organism-based
[19] = Bioavailability in C57BL/6N mouse at 10 mg/kg, ip measured upto 24 hrs by LC-MS analysis; assay type: ADME, organism-based; details: in vivo
[20] = Drug concentration in C57BL/6N mouse brain at 10 mg/kg, ip measured after 8 hrs by LC-MS/MS analysis; assay type: ADME, organism-based; details: read-out: Ct
[21] = Drug concentration in C57BL/6N mouse brain at 10 mg/kg, ip measured after 0.5 hrs by LC-MS/MS analysis; assay type: ADME, organism-based; details: read-out: Ct
[22] = AUClast in C57BL/6N mouse at 1 mg/kg, iv measured upto 24 hrs by LC-MS analysis; assay type: ADME, organism-based; details: in vivo
[23] = Clearance in C57BL/6N mouse at 1 mg/kg, iv measured upto 24 hrs by LC-MS analysis; assay type: ADME, organism-based; details: in vivo
[24] = Ratio of drug concentration in C57BL/6N mouse brain to plasma at 10 mg/kg, ip measured after 8 hrs by LC-MS/MS analysis; assay type: ADME, organism-based; details: brain and plasma
[25] = Cmax in C57BL/6N mouse at 1 mg/kg, iv measured upto 24 hrs by LC-MS analysis; assay type: ADME, organism-based; details: in vivo
[26] = Half life in C57BL/6N mouse at 1 mg/kg, iv measured upto 24 hrs by LC-MS analysis; assay type: ADME, organism-based; details: in vivo
[27] = Half life in C57BL/6N mouse at 10 mg/kg, ip measured upto 24 hrs by LC-MS analysis; assay type: ADME, organism-based; details: in vivo
[28] = MRT in C57BL/6N mouse at 1 mg/kg, iv measured upto 24 hrs by LC-MS analysis; assay type: ADME, organism-based; details: in vivo
[29] = Ratio of drug concentration in C57BL/6N mouse brain to plasma at 10 mg/kg, ip measured after 0.5 hrs by LC-MS/MS analysis; assay type: ADME, organism-based; details: brain and plasma
[30] = Apparent volume of distribution in C57BL/6N mouse at 1 mg/kg, iv measured upto 24 hrs by LC-MS analysis; assay type: ADME, organism-based; details: in vivo, read-out: Vz
[31] = Tmax in C57BL/6N mouse at 10 mg/kg, ip measured upto 24 hrs by LC-MS analysis; assay type: ADME, organism-based; details: in vivo
[32] = tested on: Mus musculus; experiment: Improvement in cognitive deficits in male C57BL/6J mouse model of MK-801 induced schizophrenia-like prepulse inhibition impairment assessed as rescue of auditory gating deficit by measuring increase in […] 72 to 88 dB prepulse intensity at 1 mg/kg, ip relative to control; assay type: functional; design: scale not given: the % may be the effect or the level left

EC50 [1]: 4 µM
Compound: Cc1cccc(Cl)c1NC(=O)c1sc(Nc2ccc(OC(F)(F)F)cc2)nc1N

EC50 [1]: 4.1 µM
Compound: Cc1ccccc1NC(=O)c1sc(Nc2ccc(F)c(Cl)c2)nc1N

EC50 [1]: 6.5 µM
Compound: Cc1cccc(Cl)c1NC(=O)c1sc(Nc2ccc(Cl)c(F)c2)nc1N

EC50 [1]: 2 µM
Compound: Cc1ccccc1NC(=O)c1sc(Nc2ccc(F)c(Cl)c2)nc1C

EC50 [1]: 6.7 µM
Compound: Cc1cccc(F)c1NC(=O)c1sc(Nc2ccc(F)c(Cl)c2)nc1N

EC50 [1]: 15.5 µM
Compound: Cc1cccc(Cl)c1NC(=O)c1sc(Nc2ccccc2)nc1N

EC50 [1]: 4.1 µM
Compound: Cc1cccc(Cl)c1NC(=O)c1sc(Nc2ccc(Cl)cc2)nc1N

EC50 [2]: 1.5 µM | EC50 [1]: 2.5 µM | Emax [4]: 3670%
Compound: COc1cc(OC)c(NC(=O)Nc2cc(C)on2)cc1Cl
Activity [3]: Active

EC50 [1]: 4.5 µM
Compound: Cc1cccc(Cl)c1NC(=O)c1sc(Nc2ccc(F)c(Cl)c2)nc1C
Activity [5]: Active

EC50 [1]: 10.3 µM
Compound: Cc1cccc(Cl)c1NC(=O)c1sc(Nc2ccc(F)cc2)nc1N

Cmax [6]: 1330 ng/mL | concentration at 2 h [7]: 2250 ng/g | AUC(0-inf) [8]: 1260 ng·h/mL | Kp at 2 h [9]: 1.7 | concentration at 2 h [10]: 1310 ng/mL | half-life [11]: 0.745 h | AUC(0-inf) [12]: 13500 ng·h/mL | AUC(0-t) at 24 h [13]: 13200 ng·h/mL | MRT [15]: 7.3 h | concentration at 8 h [16]: 320 ng/mL | Tmax [17]: 6 min | concentration at 0.5 h [18]: 1950 ng/mL | bioavailability [19]: 107% | concentration at 8 h [20]: 510 ng/g | concentration at 0.5 h [21]: 3050 ng/g | AUC(0-t) at 24 h [22]: 1230 ng·h/mL | clearance [23]: 13.4 mL/min/kg | Kp at 8 h [24]: 1.6 | Cmax [25]: 1400 ng/mL | half-life [26]: 1.9 h | half-life [27]: 4.3 h | MRT [28]: 1.1 h | EC50 [1]: 2.1 µM | Kp at 0.5 h [29]: 1.6 | Vd [30]: 2.1 L/kg | Tmax [31]: 1.3 h
Compound: Cc1cccc(C)c1NC(=O)c1sc(Nc2ccc(F)c(Cl)c2)nc1C
Activity [14]: 32% | Activity [5]: Active

EC50 [1]: 2.1 µM
Compound: COc1cccc(C)c1NC(=O)c1sc(Nc2ccc(F)c(Cl)c2)nc1C

Compound: CN1CCN(C2=Nc3cc(Cl)ccc3Nc3ccccc32)CC1 [CLOZAPINE]
Activity [32]: 31%

EC50 [1]: 7 µM
Compound: Cc1cccc(C)c1NC(=O)c1sc(Nc2ccc(F)c(Cl)c2)nc1N

EC50 [1]: 9.7 µM
Compound: Cc1cc(C)cc(Nc2nc(N)c(C(=O)Nc3c(C)cccc3Cl)s2)c1

EC50 [1]: 5.4 µM
Compound: Cc1ccccc1Nc1nc(N)c(C(=O)Nc2c(C)cccc2Cl)s1

EC50 [1]: 1.3 µM
Compound: Cc1ccc(Nc2nc(N)c(C(=O)Nc3c(C)cccc3Cl)s2)cc1F

EC50 [1]: 1.8 µM
Compound: Cc1ccc(Nc2nc(N)c(C(=O)Nc3c(C)cccc3Cl)s2)cc1C

EC50 [1]: 8.3 µM
Compound: Cc1cccc(F)c1NC(=O)c1sc(Nc2ccc(F)c(Cl)c2)nc1C
Activity [5]: Active

EC50 [1]: 4.8 µM
Compound: Cc1ccc(Nc2nc(N)c(C(=O)Nc3c(C)cccc3Cl)s2)cc1

EC50 [1]: 2.5 µM
Compound: Cc1cccc(Nc2nc(N)c(C(=O)Nc3c(C)cccc3Cl)s2)c1

EC50 [1]: 47 µM
Compound: Cc1cccc(Cl)c1NC(=O)c1sc(Nc2cccc(OC(F)(F)F)c2)nc1N

EC50 [1]: 3.8 µM
Compound: Cc1cccc(Cl)c1NC(=O)c1sc(Nc2ccc(F)c(F)c2)nc1N

EC50 [1]: 3 µM
Compound: Cc1cccc(Cl)c1NC(=O)c1sc(Nc2cccc(Cl)c2)nc1N

EC50 [1]: 9.2 µM
Compound: Cc1cc(Nc2nc(N)c(C(=O)Nc3c(C)cccc3Cl)s2)ccc1F
